From US20020147137A1, “Medical use of alpha1-acid glycoprotein (AAG) or orosomucoid” (Hamosan Erzeugung Pharmazeutischer Grundstoffe Gesellschaft …, priority 1999, published 2002)

Experiments:
[1] = Withdrawal by means of plasma exchange (comparative): methadone, methadone metabolites and thebaine measured in urine; details: for Substance measured in urine: before 1. PE / before therapy; for concentration at 1 day / concentration at 2 day / concentration at 3 day / concentration at 4 day / concentration at 5 day / concentration at 6 day / concentration at 7 day / concentration at 17 day / concentration at 24 day / concentration at 31 day: human, in vivo
Text: In the withdrawal therapy of a methadone addict, one of the inventors has practised the method of plasma exchange (PE) for assisting and accelerating the removal of methadone from the body, i.e., blood was taken from the patient, the cellular components were separated and re-infused into the body, and instead of the patient's own plasma portion, the plasma of a donor was supplied.
The patient was 2 x connected to the plasmapheresis (1st and 3rd day). […] Besides, the coagulation parameters were measured because of the hypercoagulability.

[2] = tested on: patient in methadone withdrawal; experiment: Methadone withdrawal by administration of α1-acid glycoprotein: clinical course; assay type: in vivo, human (patient)
Protocol: The patient's circulation is stable, the patient is co-operative, a venous cannula and a peripheral venous catheter on the left side are set. Immediately after admission, beginning of sedation with Dormicum 0.4 mg/kg/d, Clonidin 0.02 mg/kg/d. Dormicum bolus administration at admission.
Volume substitution with Elohaest, human albumin and electrolyte solution.
From 4:05 p.m. to 4:15 p.m., renewed hemodilution: 400 ml of own blood was drawn.
Urinating is without any problems and spontaneous.
The patient's only problems are nicotine withdrawal.
Therapy with Clonidin and Dormicum is changed to oral (4×0.075 mg Catapresan and 4×7.5 mg Dormicum per os) with sufficient magnesium substitution in addition. Subjectively, the patient feels well and is free from any discomfort.
Removal of the peripheral venous catheter, continuation of the oral therapy, the patient is moved to the LNKH while being in a good general state and subjectively feeling well.

[3] = tested on: isolated perfused rat livers; details: protein added to perfusate; cited from earlier work

CCC(=O)C(CC(C)N(C)C)(c1ccccc1)c1ccccc1 (racemic) [methadone, reference compound]
Substance measured in urine [1]: 15 µg/mL
concentration at 1 day [1]: 3000 ng/mL
concentration at 2 day [1]: 1900 ng/mL
concentration at 3 day [1]: 500 ng/mL
concentration at 4 day [1]: 500 ng/mL
concentration at 5 day [1]: 400 ng/mL
concentration at 6 day [1]: 300 ng/mL
concentration at 7 day [1]: 500 ng/mL
concentration at 17 day [1]: 0 ng/mL
concentration at 24 day [1]: 0 ng/mL
concentration at 31 day [1]: 0 ng/mL

COC1=CC=C2[C@H]3Cc4ccc(OC)c5c4[C@@]2(CCN3C)[C@H]1O5 [thebaine]
Substance measured in urine [1]: 7 µg/mL
concentration at 1 day [1]: 0 ng/mL
concentration at 2 day [1]: 0 ng/mL
concentration at 3 day [1]: 0 ng/mL
concentration at 4 day [1]: 0 ng/mL
concentration at 5 day [1]: 0 ng/mL
concentration at 6 day [1]: 0 ng/mL
concentration at 7 day [1]: 0 ng/mL
concentration at 17 day [1]: 0 ng/mL
concentration at 24 day [1]: 0 ng/mL
concentration at 31 day [1]: 0 ng/mL

α1-acid glycoprotein
tolerability after first administration ([2]; 3 grams in 500 ml of infusion solution at 10 a.m.): first symptoms with slight sweating, otherwise no problems so far
acute reaction after second administration ([2]; 6 grams in merely 150 ml of infusion solution at 4:30 p.m.): symptoms of an acute reaction, similar to an allergy
physical withdrawal symptoms ([2]; 9/20/97, day after AAG administration): no physical withdrawal symptoms
physical withdrawal symptoms ([2]; 9/21/97, second day after AAG administration): no particular physical withdrawal symptoms
withdrawal symptoms after AAG administration ([2]; after the short crisis following the 2nd partial amount): intensive recovery phase without any withdrawal symptoms
total time until treatment could be terminated ([2]; methadone withdrawal with AAG, 2nd patient): three
influence on elimination of drugs capable of being bound [3]: slowed down
influence on elimination of nonbinding drugs [3]: no influence
